Assay results from US20250179061A1 (SIRONAX LTD., priority 2022, published 2025).

tested on: HT-29 cells; experiment: HT-29 necroptosis cell viability assay (TNF-α/SMAC mimetic/zVAD-FMK, CellTiter-Glo); type: cell-based; settings: Homo sapiens, HT-29, HT-29 necroptosis cell viability, IC50 class symbols; read-out: Activity
Method in brief: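 Necroptosis was triggered by TNF-α (10 ng/ml), SMAC mimetic (6 μM) and zVAD-FMK (10 μM) in serum-free medium during 20 h compound exposure (10 concentrations, threefold steps) of HT-29 cells. IC50 from duplicate dose-responses uses CellTiter-Glo ATP luminescence as viability read-out.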

SMILES	IC50 [µM]
CCOC1CN(c2cc(Oc3ccc(-n4ncn(Cc5c(F)cccc5F)c4=O)cc3F)c(F)cn2)C1 [Example 364, 4-(2,6-difluorobenzyl)-2-(4-((2-(3-ethoxyazetidin-1-yl)-5-fluoropyridin-4-yl)oxy)-3-fluorophenyl)-2,4-dihydro-3H-1,2,4-triazol-3-one]	< 0.1
CCOC1CN(c2cc(Oc3ccc(-n4ncn(Cc5c(F)cccc5F)c4=O)cc3F)c(Cl)cn2)C1 [Example 365, 2-(4-((5-chloro-2-(3-ethoxyazetidin-1-yl)pyridin-4-yl)oxy)-3-fluorophenyl)-4-(2,6-difluorobenzyl)-2,4-dihydro-3H-1,2,4-triazol-3-one]	< 0.1
COC1(C#N)CN(c2cc(Oc3ccc(-n4ncn(Cc5c(F)cccc5F)c4=O)cc3)ccn2)C1 [Example 366, 1-(4-(4-(4-(2,6-difluorobenzyl)-5-oxo-4,5-dihydro-1H-1,2,4-triazol-1-yl)phenoxy)pyridin-2-yl)-3-methoxyazetidine-3-carbonitrile]	< 0.1
COC1(C#N)CN(c2cc(Oc3ccc(-n4ncn(Cc5c(F)cccc5F)c4=O)cc3F)ccn2)C1 [Example 367, 1-(4-(4-(4-(2,6-difluorobenzyl)-5-oxo-4,5-dihydro-1H-1,2,4-triazol-1-yl)-2-fluorophenoxy)pyridin-2-yl)-3-methoxyazetidine-3-carbonitrile]	< 0.1
C[C@H]1C[C@@H](NC(=O)OC(C)(C)C)CN1c1cc(Oc2ccc(-n3ncn(Cc4c(F)cccc4F)c3=O)cc2F)ccn1 [Example 368, tert-butyl ((3R,5S)-1-(4-(4-(4-(2,6-difluorobenzyl)-5-oxo-4,5-dihydro-1H-1,2,4-triazol-1-yl)-2-fluorophenoxy)pyridin-2-yl)-5-methylpyrrolidin-3-yl)carbamate]	0.1 to 1
C[C@H]1C[C@@H](N)CN1c1cc(Oc2ccc(-n3ncn(Cc4c(F)cccc4F)c3=O)cc2F)ccn1 [Example 369, 2-(4-((2-((2S,4R)-4-amino-2-methylpyrrolidin-1-yl)pyridin-4-yl)oxy)-3-fluorophenyl)-4-(2,6-difluorobenzyl)-2,4-dihydro-3H-1,2,4-triazol-3-one]	< 0.1
CCOC1CN(c2cc(Oc3ccc(-n4ncn(Cc5c(F)cccc5F)c4=O)cc3F)c(C)cn2)C1 [Example 370, 4-(2,6-difluorobenzyl)-2-(4-((2-(3-ethoxyazetidin-1-yl)-5-methylpyridin-4-yl)oxy)-3-fluorophenyl)-2,4-dihydro-3H-1,2,4-triazol-3-one]	< 0.1
CN(C)C1(C)CN(c2cc(Oc3ccc(-n4ncn(Cc5c(F)cccc5F)c4=O)cc3F)c(F)cn2)C1 [Example 371, 4-(2,6-difluorobenzyl)-2-(4-((2-(3-(dimethylamino)-3-methylazetidin-1-yl)-5-fluoropyridin-4-yl)oxy)-3-fluorophenyl)-2,4-dihydro-3H-1,2,4-triazol-3-one]	0.1 to 1
CC(C)(C)OC(=O)NC(C)(C)C1CN(c2cc(Oc3ccc(-n4ncn(Cc5c(F)cccc5F)c4=O)cc3F)c(F)cn2)C1 [Example 372, tert-butyl (2-(1-(4-(4-(4-(2,6-difluorobenzyl)-5-oxo-4,5-dihydro-1H-1,2,4-triazol-1-yl)-2-fluorophenoxy)-5-fluoropyridin-2-yl)azetidin-3-yl)propan-2-yl)carbamate]	< 0.1
CC(C)(C)OC(=O)NC[C@H]1CCN1c1cc(Oc2ccc(-n3ncn(Cc4c(F)cccc4F)c3=O)cc2F)c(F)cn1 [Example 373, tert-butyl (R)-((1-(4-(4-(4-(2,6-difluorobenzyl)-5-oxo-4,5-dihydro-1H-1,2,4-triazol-1-yl)-2-fluorophenoxy)-5-fluoropyridin-2-yl)azetidin-2-yl)methyl)carbamate]	< 0.1
CC(C)(N)C1CN(c2cc(Oc3ccc(-n4ncn(Cc5c(F)cccc5F)c4=O)cc3F)c(F)cn2)C1 [Example 374, 2-(4-((2-(3-(2-aminopropan-2-yl)azetidin-1-yl)-5-fluoropyridin-4-yl)oxy)-3-fluorophenyl)-4-(2,6-difluorobenzyl)-2,4-dihydro-3H-1,2,4-triazol-3-one]	0.1 to 1
NC[C@H]1CCN1c1cc(Oc2ccc(-n3ncn(Cc4c(F)cccc4F)c3=O)cc2F)c(F)cn1 [Example 375, (R)-2-(4-((2-(2-(aminomethyl)azetidin-1-yl)-5-fluoropyridin-4-yl)oxy)-3-fluorophenyl)-4-(2,6-difluorobenzyl)-2,4-dihydro-3H-1,2,4-triazol-3-one]	< 0.1
C[C@H]1[C@H](NC(=O)OC(C)(C)C)CN1c1cc(Oc2ccc(-n3ncn(Cc4c(F)cccc4F)c3=O)cc2F)c(F)cn1 [Example 376, tert-butyl ((2S,3R)-1-(4-(4-(4-(2,6-difluorobenzyl)-5-oxo-4,5-dihydro-1H-1,2,4-triazol-1-yl)-2-fluorophenoxy)-5-fluoropyridin-2-yl)-2-methylazetidin-3-yl)carbamate]	< 0.1
C[C@H]1[C@H](N)CN1c1cc(Oc2ccc(-n3ncn(Cc4c(F)cccc4F)c3=O)cc2F)c(F)cn1 [Example 377, 2-(4-((2-((2S,3R)-3-amino-2-methylazetidin-1-yl)-5-fluoropyridin-4-yl)oxy)-3-fluorophenyl)-4-(2,6-difluorobenzyl)-2,4-dihydro-3H-1,2,4-triazol-3-one]	< 0.1
NC1(CO)CN(c2cc(Oc3ccc(-n4ncn(Cc5c(F)cccc5F)c4=O)cc3F)c(F)cn2)C1 [Example 378, 2-(4-((2-(3-amino-3-(hydroxymethyl)azetidin-1-yl)-5-fluoropyridin-4-yl)oxy)-3-fluorophenyl)-4-(2,6-difluorobenzyl)-2,4-dihydro-3H-1,2,4-triazol-3-one]	0.1 to 1
O=c1n(Cc2c(F)cccc2F)cnn1-c1ccc(Oc2ccnc(N3CCC34CNC4)c2)cc1 [Example 379, 2-(4-((2-(1,6-diazaspiro[3.3]heptan-1-yl)pyridin-4-yl)oxy)phenyl)-4-(2,6-difluorobenzyl)-2,4-dihydro-3H-1,2,4-triazol-3-one]	0.1 to 1
O=c1n(Cc2c(F)cccc2F)cnn1-c1ccc(Oc2ccnc(N3CC4(CCNCC4)C3)c2)cc1 [Example 380, 2-[4-[[2-(2,7-diazaspiro[3.5]nonan-2-yl)-4-pyridyl]oxy]phenyl]-4-[(2,6-difluorophenyl)methyl]-1,2,4-triazol-3-one]	0.1 to 1
N#CC1(CNc2cc(Oc3ccc(-n4ncn(Cc5c(F)cccc5F)c4=O)cc3)ccn2)CC1 [Example 381, 1-(((4-(4-(4-(2,6-difluorobenzyl)-5-oxo-4,5-dihydro-1H-1,2,4-triazol-1-yl)phenoxy)pyridin-2-yl)amino)methyl)cyclopropane-1-carbonitrile]	< 0.1
C[C@@H]1CN(c2cc(Oc3ccc(-n4ncn(Cc5c(F)cccc5F)c4=O)cc3)ccn2)C[C@H](C)O1 [Example 382, 4-(2,6-difluorobenzyl)-2-(4-((2-((2R,6S)-2,6-dimethylmorpholino)pyridin-4-yl)oxy)phenyl)-2,4-dihydro-3H-1,2,4-triazol-3-one]	0.1 to 1
CC1(C#N)CN(c2cc(Oc3ccc(-n4ncn(Cc5c(F)cccc5F)c4=O)cc3)ccn2)C1 [Example 383, 1-(4-(4-(4-(2,6-difluorobenzyl)-5-oxo-4,5-dihydro-1H-1,2,4-triazol-1-yl)phenoxy)pyridin-2-yl)-3-methylazetidine-3-carbonitrile]	< 0.1
N#CC1CCN(c2cc(Oc3ccc(-n4ncn(Cc5c(F)cccc5F)c4=O)cc3)ccn2)C1 (stereo not shown) [Example 384, 1-(4-(4-(4-(2,6-difluorobenzyl)-5-oxo-4,5-dihydro-1H-1,2,4-triazol-1-yl)phenoxy)pyridin-2-yl)pyrrolidine-3-carbonitrile]	< 0.1
CC(C)(C)CCNc1cc(Oc2ccc(-n3ncn(Cc4c(F)cccc4F)c3=O)cc2)ccn1 [Example 385, 4-(2,6-difluorobenzyl)-2-(4-((2-((3,3-dimethylbutyl)amino)pyridin-4-yl)oxy)phenyl)-2,4-dihydro-3H-1,2,4-triazol-3-one]	1 to 10
CC(C)(C)CNc1cc(Oc2ccc(-n3ncn(Cc4c(F)cccc4F)c3=O)cc2)ccn1 [Example 386, 4-(2,6-difluorobenzyl)-2-(4-((2-(neopentylamino)pyridin-4-yl)oxy)phenyl)-2,4-dihydro-3H-1,2,4-triazol-3-one]	< 0.1
CC(C)(C)Nc1cc(Oc2ccc(-n3ncn(Cc4c(F)cccc4F)c3=O)cc2)ccn1 [Example 387, 2-(4-((2-(tert-butylamino)pyridin-4-yl)oxy)phenyl)-4-(2,6-difluorobenzyl)-2,4-dihydro-3H-1,2,4-triazol-3-one]	0.1 to 1
CC(C)(C)Oc1cc(Oc2ccc(-n3ncn(Cc4c(F)cccc4F)c3=O)cc2)ccn1 [Example 388, 2-(4-((2-(tert-butoxy)pyridin-4-yl)oxy)phenyl)-4-(2,6-difluorobenzyl)-2,4-dihydro-3H-1,2,4-triazol-3-one]	0.1 to 1
C[C@@H]1[C@H](C#N)CN1c1nccc(Oc2ccc(-n3ncn(Cc4c(F)cccc4F)c3=O)cc2F)c1F [Example 389, (2R,3R)-1-(4-(4-(4-(2,6-difluorobenzyl)-5-oxo-4,5-dihydro-1H-1,2,4-triazol-1-yl)-2-fluorophenoxy)-3-fluoropyridin-2-yl)-2-methylazetidine-3-carbonitrile]	< 0.1
Cc1nc(N2CC(C)(N)C2)sc1Oc1ccc(-n2ncn(Cc3c(F)cccc3F)c2=O)cc1 [Example 390, 2-(4-((2-(3-amino-3-methylazetidin-1-yl)-4-methylthiazol-5-yl)oxy)phenyl)-4-(2,6-difluorobenzyl)-2,4-dihydro-3H-1,2,4-triazol-3-one]	< 0.1
N#CC12CC(Nc3nccc(Oc4ccc(-n5ncn(Cc6c(F)cccc6F)c5=O)cc4Cl)c3F)(C1)C2 [Example 391, 3-((4-(2-chloro-4-(4-(2,6-difluorobenzyl)-5-oxo-4,5-dihydro-1H-1,2,4-triazol-1-yl)phenoxy)-3-fluoropyridin-2-yl)amino)bicyclo[1.1.1]pentane-1-carbonitrile]	0.1 to 1
